Where a SMILES comes first, the peptide text is derived from it. Bridges are numbered along the chain shown (N, C = ends).
Molecular target: Prolyl endopeptidase (Flavobacterium meningosepticum)
Experiment: Inhibition of Flavobacterium meningosepticum PEP

IC50: 1100 nM
Structure (SMILES): CC[C@H](C)[C@H](NC(=O)[C@H](Cc1ccccc1)NC(=O)[C@@H](NC(=O)[C@H](Cc1cnc[nH]1)NC(=O)CNC(=O)CNC(=O)[C@H](Cc1ccccc1)NC(=O)[C@H](CC(C)C)NC(=O)[C@@H]1CC(=O)NCC(=O)N[C@@H](Cc2ccc(O)cc2)C(=O)N2CCC[C@H]2C(=O)N[C@@H](Cc2c[nH]c3ccccc23)C(=O)N[C@@H](Cc2c[nH]c3ccccc23)C(=O)N[C@@H](CC(=O)O)C(=O)N[C@@H](Cc2ccc(O)cc2)C(=O)N[C@@H](CCCNC(=N)N)C(=O)N1)[C@@H](C)O)C(=O)N[C@@H](CO)C(=O)N1CCC[C@H]1C(=O)O [propeptin] (GYPWWDYRDLFGGHTFISP-OH; lactam N-9)
